We go through 31 compounds from ChEMBL document CHEMBL2163248, “Classification of inhibitors of hepatic organic anion transporting polypeptides (OATPs): influence of protein expression on drug-drug interactions” (J Med Chem, 2012).

Series [1] addresses T1, Solute carrier organic anion transporter family member 1B1 (Homo sapiens, UniProt Q9Y6L6).
T1 sequence (Q9Y6L6 whole entry): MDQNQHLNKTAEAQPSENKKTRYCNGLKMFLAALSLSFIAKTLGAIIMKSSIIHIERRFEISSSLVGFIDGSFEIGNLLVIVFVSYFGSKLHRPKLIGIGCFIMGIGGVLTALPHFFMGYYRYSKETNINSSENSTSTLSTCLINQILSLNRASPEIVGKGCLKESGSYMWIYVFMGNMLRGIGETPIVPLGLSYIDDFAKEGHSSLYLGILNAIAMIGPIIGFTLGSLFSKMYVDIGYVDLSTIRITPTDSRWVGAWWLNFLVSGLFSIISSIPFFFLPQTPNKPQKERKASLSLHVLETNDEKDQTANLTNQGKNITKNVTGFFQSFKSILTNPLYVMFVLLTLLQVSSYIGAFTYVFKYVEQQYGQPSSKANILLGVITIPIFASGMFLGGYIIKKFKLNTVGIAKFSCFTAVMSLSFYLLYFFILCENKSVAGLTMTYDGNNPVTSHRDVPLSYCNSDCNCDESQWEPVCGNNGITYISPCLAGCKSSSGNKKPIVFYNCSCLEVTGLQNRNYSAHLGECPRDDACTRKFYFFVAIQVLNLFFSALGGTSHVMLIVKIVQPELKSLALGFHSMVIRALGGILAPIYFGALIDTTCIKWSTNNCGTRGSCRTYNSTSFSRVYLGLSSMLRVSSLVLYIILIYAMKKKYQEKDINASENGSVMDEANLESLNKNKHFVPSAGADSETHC
Nature of the series: Inhibition of human liver OATP1B1 expressed in HEK293 Flp-In cells assessed as reduction in E17-betaG uptake at 20 uM by scintillation counting. Conditions: hek293, 20 µM.

The target in series [2] is T2, Solute carrier organic anion transporter family member 2B1 (Homo sapiens, UniProt O94956).
T2 sequence (O94956 whole entry): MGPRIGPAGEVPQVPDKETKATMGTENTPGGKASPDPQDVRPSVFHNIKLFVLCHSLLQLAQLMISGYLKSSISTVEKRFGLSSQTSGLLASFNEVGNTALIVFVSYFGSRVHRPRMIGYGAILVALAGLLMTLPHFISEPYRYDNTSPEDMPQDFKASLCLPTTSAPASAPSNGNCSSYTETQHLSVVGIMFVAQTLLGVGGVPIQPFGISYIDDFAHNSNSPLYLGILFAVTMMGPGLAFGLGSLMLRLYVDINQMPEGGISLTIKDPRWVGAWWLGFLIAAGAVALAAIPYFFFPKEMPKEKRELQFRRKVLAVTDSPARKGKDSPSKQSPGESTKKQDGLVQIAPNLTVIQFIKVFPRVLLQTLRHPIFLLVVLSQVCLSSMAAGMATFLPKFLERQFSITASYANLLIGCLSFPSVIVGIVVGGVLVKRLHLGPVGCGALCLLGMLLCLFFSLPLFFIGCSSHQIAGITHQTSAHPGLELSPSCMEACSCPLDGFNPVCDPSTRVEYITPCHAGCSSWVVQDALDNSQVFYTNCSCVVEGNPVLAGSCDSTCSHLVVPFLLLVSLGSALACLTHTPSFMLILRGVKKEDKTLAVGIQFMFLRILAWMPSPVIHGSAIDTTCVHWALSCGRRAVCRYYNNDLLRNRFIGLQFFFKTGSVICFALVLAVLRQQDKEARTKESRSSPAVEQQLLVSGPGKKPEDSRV
Nature of the series: Inhibition of human liver OATP2B1 expressed in HEK293 Flp-In cells assessed as reduction in [3H]E3S uptake at 20 uM incubated for 5 mins by scintillation counting. The settings on record: hek293, 5 min.

For series [3], the target named is T3, Solute carrier organic anion transporter family member 1B3 (Homo sapiens, UniProt Q9NPD5).
T3 sequence (Q9NPD5 whole entry): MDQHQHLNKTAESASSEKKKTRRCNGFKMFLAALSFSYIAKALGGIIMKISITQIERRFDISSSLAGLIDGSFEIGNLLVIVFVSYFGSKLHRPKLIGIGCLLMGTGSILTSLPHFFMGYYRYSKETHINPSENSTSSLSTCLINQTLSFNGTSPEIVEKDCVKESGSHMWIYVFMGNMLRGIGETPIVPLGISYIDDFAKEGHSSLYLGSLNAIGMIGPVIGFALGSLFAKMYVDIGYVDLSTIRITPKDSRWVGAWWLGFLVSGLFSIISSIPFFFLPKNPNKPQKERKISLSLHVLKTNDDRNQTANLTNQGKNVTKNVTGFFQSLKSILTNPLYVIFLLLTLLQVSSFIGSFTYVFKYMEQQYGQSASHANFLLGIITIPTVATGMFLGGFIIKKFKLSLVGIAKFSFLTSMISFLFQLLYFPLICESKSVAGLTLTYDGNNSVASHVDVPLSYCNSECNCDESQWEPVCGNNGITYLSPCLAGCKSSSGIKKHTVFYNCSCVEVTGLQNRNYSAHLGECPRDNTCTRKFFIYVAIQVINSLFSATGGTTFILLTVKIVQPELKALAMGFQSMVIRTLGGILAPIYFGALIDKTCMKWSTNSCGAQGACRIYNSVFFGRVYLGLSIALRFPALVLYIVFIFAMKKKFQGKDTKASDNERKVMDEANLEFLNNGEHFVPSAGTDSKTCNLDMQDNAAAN
Nature of the series: Inhibition of human liver OATP1B3 expressed in HEK293 Flp-In cells assessed as reduction in [3H]E17-betaG uptake at 20 uM incubated for 5 mins by scintillation counting. Conditions: hek293, 5 min.

Molecules are shown by their SMILES.

Regarding `Nc1nc2c(ncn2COCCO)c(=O)[nH]1` [ACYCLOVIR], the INH in series [1] was 2.3%; in series [2], -15.2%; in series [3], -2%.
The like results for `Oc1ncnc2[nH]ncc12` [ALLOPURINOL] were, in that order, -35.6%, 8.4% and 10.8%.
For the compound `NC12CC3CC(CC(C3)C1)C2` [AMANTADINE], the INH in series [1] is recorded as 26.4%; in series [2] it was 17%; in series [3] it was 10%.
The like results for `Nc1ccc(C(=O)NCC(=O)O)cc1` [AMINOHIPPURIC ACID] were, in that order, 30.1%, 27.4% and 23.7%.
The like results for `CN(C)CCC=C1c2ccccc2CCc2ccccc21` [AMITRIPTYLINE] were, in that order, 10.5%, -8.9% and 22%.
The like results for `COc1ccc(CCN2CCC(Nc3nc4ccccc4n3Cc3ccc(F)cc3)CC2)cc1` [ASTEMIZOLE] were, in that order, 22.3%, 58.9% and 24.4%.
For `COC(=O)N[C@H](C(=O)N[C@@H](Cc1ccccc1)[C@@H](O)CN(Cc1ccc(-c2ccccn2)cc1)NC(=O)[C@@H](NC(=O)OC)C(C)(C)C)C(C)(C)C` [ATAZANAVIR], the INH in series [1] came to 95%; in series [2] it was 90.1%; in series [3], 92.6%.
As to `CNCC[C@@H](Oc1ccccc1C)c1ccccc1` [ATOMOXETINE], the INH is recorded as -7.5% in series [1], 16.3% in series [2] and 31.6% in series [3].
The matching figures for `O=C(O)[C@H]1O[C@@H](Oc2cc3oc(-c4ccccc4)cc(=O)c3c(O)c2O)[C@H](O)[C@@H](O)[C@@H]1O` [BAICALIN]: 27.6%, 59.1% and 20.9%.
The matching figures for `CCc1oc2ccccc2c1C(=O)c1cc(Br)c(O)c(Br)c1` [BENZBROMARONE]: 86.6%, 76.3% and 19.5%.
The matching figures for `COc1ccc2cc3[n+](cc2c1OC)CCc1cc2c(cc1-3)OCO2` [BERBERINE]: 32%, 18.5% and 19.4%.
Take `CCCC1O[C@@H]2C[C@H]3[C@@H]4CCC5=CC(=O)C=C[C@]5(C)[C@H]4[C@@H](O)C[C@]3(C)[C@]2(C(=O)CO)O1` (stereo partly drawn) [BUDESONIDE]: the INH in series [1] amounted to 73.2%; in series [2] it was 30.3%; in series [3] it was 79%.
The matching figures for `CCc1cccc2cc(C(O)CNC(C)(C)C)oc12` (stereo not drawn) [BUFURALOL]: -13.9%, -7% and 23.8%.
Turning to `CC(NC(C)(C)C)C(=O)c1cccc(Cl)c1` (stereo not drawn) [BUPROPION], the values for the INH in series [1], in series [2] and in series [3] were 8.5%, 17% and 7.2%, respectively.
The matching figures for `O=C1CC2(CCCC2)CC(=O)N1CCCCN1CCN(c2ncccn2)CC1` [BUSPIRONE]: 33.3%, -13.9% and -5.6%.
The like results for `Cn1c(=O)c2c(ncn2C)n(C)c1=O` [CAFFEINE] were, in that order, -1.8%, 3.2% and 22.1%.
The like results for `C[C@H](CS)C(=O)N1CCC[C@H]1C(=O)O` [CAPTOPRIL] were, in that order, 18.6%, 39.1% and 4%.
Consider `NC(=O)N1c2ccccc2C=Cc2ccccc21` [CARBAMAZEPINE], for which the INH is given as 13.3% in series [1], 17.3% in series [2] and 23.2% in series [3].
The like results for `C[N+](C)(C)CC(O)CC(=O)[O-]` (stereo not drawn) [CARNITINE] were, in that order, 36.6%, 15.5% and -9.3%.
The like results for `CC1=C(C(=O)O)N2C(=O)[C@@H](NC(=O)[C@H](N)c3ccc(O)cc3)[C@H]2SC1` [CEFADROXIL] were, in that order, 9.4%, 3.5% and 21%.
The like results for `Cn1nnnc1SCC1=C(C(=O)O)N2C(=O)[C@@H](NC(=O)[C@H](O)c3ccccc3)[C@H]2SC1` [CEFAMANDOLE] were, in that order, 30.2%, 2.7% and 16.5%.
With `COCc1c(C(C)C)nc(C(C)C)c(/C=C/[C@@H](O)C[C@@H](O)CC(=O)O)c1-c1ccc(F)cc1` [CERIVASTATIN], the INH in series [1] was determined as 73.6%; in series [2], 40.1%; in series [3], 68.1%.
`CN(C)CCCN1c2ccccc2Sc2ccc(Cl)cc21` [CHLORPROMAZINE]: the INH in series [1] is given as 27.1%; in series [2], 4.3%; in series [3], 22.8%.
The like results for `CN(C)CC/C=C1/c2ccccc2Sc2ccc(Cl)cc21` [CHLORPROTHIXENE] were, in that order, 24%, 26.6% and -6.9%.
The like results for `C[C@H](CCC(=O)O)[C@H]1CC[C@H]2[C@@H]3[C@H](O)C[C@@H]4C[C@H](O)CC[C@]4(C)[C@H]3C[C@H](O)[C@]12C` [CHOLIC ACID] were, in that order, 41.6%, 20.2% and 40.8%.
Regarding `CN/C(=N/CCSCc1nc[nH]c1C)NC#N` [CIMETIDINE], the values for the INH in series [1], in series [2] and in series [3] were 40.3%, -6.2% and 24.8%, respectively.
Turning to `Clc1ccccc1C(c1ccccc1)(c1ccccc1)n1ccnc1` [CLOTRIMAZOLE], the INH is 32.3% in series [1], -37.1% in series [2] and -120.4% in series [3].
The matching figures for `COc1cc2c(c(OC)c1OC)-c1ccc(OC)c(=O)cc1[C@@H](NC(C)=O)CC2` [COLCHICINE]: 45.2%, 24.4% and -3.9%.
As for `O=c1ccc2ccccc2o1` [COUMARIN], the results for the INH in series [1], in series [2] and in series [3] were 7.6%, 9.3% and 38.2%, respectively.
The like results for `O=c1oc2cc(O)ccc2c2oc3cc(O)ccc3c12` [COUMESTROL] were, in that order, 73.2%, -41.5% and -21.1%.
The like results for `O=c1c(-c2ccc(O)cc2)coc2cc(O)ccc12` [DAIDZEIN] were, in that order, 35%, 32% and 0.7%.
